Experimental data: paper PMC8069510, “Synthesis and Evaluation of Novel 2,2-Dimethylthiochromanones as Anti-Leishmanial Agents” (Molecules, 2021)
pEC50, pIC50: −log10 of the molar value. Where two headings read alike, the source gives them in different places.

Legend:
[1] = test system: L. infantum axenic amastigotes; assay: Antileishmanial activity on L. infantum axenic amastigotes (luciferase luminescence); type: cell-based, Leishmania infantum; conditions: for pIC50 / activity against L. infantum (in words): axenic amastigotes; for pIC50: 48 h incubation, mean (standard deviation), three independent experiments; for S.I. (Selectivity Index) = CC50/IC50: CC50 J774A.1 / IC50 L. infantum axenic amastigotes
Procedure: (§1) Selected compounds were evaluated for their leishmanicidal ability as previously described, through examining their activity on L. infantum axenic amastigotes, and the results are expressed in Table 2 as IC50 values. In parallel, evaluation of the cytotoxicity of test compounds was performed by MTT assay using the J774A.1 macrophage cell line. Results are presented as CC50 values.
4.2. Bioassay Procedures: Antileishmanial Activity on L. infantum Axenic Amastigotes
L. infantum promastigotes (MHOM/MA/67/ITMAP-263, CNR Leishmania, Montpellier, France, expressing luciferase activity) were cultivated in RPMI 1640 medium supplemented with 10% foetal calf serum (FCS), 2 mM L-glutamine and antibiotics (100 U/mL penicillin and 100 μg/mL streptomycin) and harvested in the logarithmic phase of growth by centrifugation at 900× g for 10 min. The supernatant was carefully removed and replaced by the same volume of RPMI 1640 complete medium at pH 5.4, and then incubated for 24 h at 24 °C. The acidified promastigotes were then incubated for 24 h at 37 °C in a ventilated flask to transform promastigotes into axenic amastigotes. The effects of the tested compounds on the growth of L. infantum axenic amastigotes were assessed as follows. L. infantum amastigotes were incubated at a density of 2 × 10^6 parasites/mL in sterile 96-well plates with various concentrations of compounds dissolved in DMSO (final concentration less than 0.5% v/v), in duplicate. Appropriate controls, DMSO and amphotericin, were added to each set of experiments. After a 48 h incubation period at 37 °C, each plate-well was then microscopically examined to detect any precipitate formation. To estimate the luciferase activity of axenic amastigotes, 80 μL of each well were transferred to white 96-well plates, Steady Glow® reagent (Promega, Charbonnières-les-Bains, France) was added according to the manufacturer’s instructions, and plates were incubated for 2 min. The luminescence was measured using a Microbeta Luminescence Counter (Perkin Elmer, Villebon-sur-Yvette, France). The inhibitory concentration 50% (IC50) was defined as the concentration of drug required to inhibit by 50% the metabolic activity of L. infantum amastigotes compared to control. IC50 values were calculated by non-linear regression analysis on dose response curves, using the TableCurve 2D V5 software (Systat Software, San Jose, CA, USA). IC50 values represent the mean of three independent experiments.

[2] = test system: axenic amastigotes of L. infantum; parameters: method as in PMID 32258470; conditions: cited from earlier work
[3] = test system: intracellular amastigotes of L. infantum; parameters: method as in PMID 32258470; conditions: cited from earlier work
[4] = test system: amastigotes of L. infantum; parameters: method as in PMID 29935351; conditions: cited from earlier work
[5] = test system: amastigotes of Trypanosoma cruzi; parameters: method as in PMID 29935351; conditions: cited from earlier work
L. (V) panamensis = conditions: read-out: EC50 against L. (V) panamensis, cited from earlier work
[6] = parameters: method as in PMID 29286346; conditions: cited from earlier work
L. braziliensis = test system: L. braziliensis; parameters: method as in PMID 32734890; conditions: topical application, co-formulated with saponins; cited from earlier work
L. pifanoi = test system: L. pifanoi; parameters: method as in PMID 32734890; conditions: topical application, co-formulated with saponins; cited from earlier work
[7] = Cytotoxicity by MTT assay on J774A.1 macrophage cell line; type: cell-based, mouse; conditions: mouse, J774A.1 macrophage cells; MTT, 72 h incubation; mean (standard deviation)
Procedure: as §1
(§2) 4.3. Cytotoxicity Evaluation on J774A.1 Cells
(§3) Evaluation of the cytotoxicity of test compounds was performed by MTT assay using the J774A.1 cell line (mouse macrophage cell line, Sigma-Aldrich). Briefly, cells (5 × 10^4 cells/mL) in 100 µL of complete medium, [DMEM High glucose supplemented with 10% fetal calf serum (FCS), 2 mM L-glutamine and antibiotics (100 U/mL penicillin and 100 µg/mL streptomycin)] were seeded into each well of 96-well plates and incubated at 37 °C in a humidified 5% CO2 with 95% air atmosphere. After a 24 h incubation, 100 µL of medium with various product concentrations and appropriate controls were added and the plates were incubated for 72 h at 37 °C. Each plate-well was then examined under the microscope to detect possible precipitate formation before the medium was aspirated from the wells. 100 µL of MTT solution (0.5 mg/mL in RPMI) was then added to each well. Cells were incubated for 2 h at 37 °C. After this time, the MTT solution was removed and DMSO (100 µL) was added to dissolve the resulting formazan crystals. Plates were shaken vigorously (300 rpm) for 5 min. The absorbance was measured at 570 nm with a microplate spectrophotometer. DMSO was used as blank and doxorubicin (Sigma Aldrich, Saint-Quentin-Fallavier, France) as positive control. CC50 values were calculated by non-linear regression analysis on dose–response curves, using the TableCurve 2D V5 software.

J774A.1 cells = assay: as above; type: cell-based, mouse
Procedure: as §1, §2, §3

Molecule	pIC50 ([1]; Leishmania infantum)	S.I. (Selectivity Index) = CC50/IC50 [1]	CC50 at 72 h [7]	also measured
C[C@@H]1[C@H](O)[C@@H](C)/C=C/C=C/C=C/C=C/C=C/C=C/C=C/[C@H](O[C@@H]2O[C@H](C)[C@@H](O)[C@H](N)[C@@H]2O)C[C@@H]2O[C@](O)(C[C@@H](O)C[C@@H](O)[C@H](O)CC[C@@H](O)C[C@@H](O)CC(=O)O[C@H]1C)C[C@H](O)[C@H]2C(=O)O [Amphotericin B, reference compound]	7.14			
CCCCCCCCNCc1ccc2c(c1)C(=O)CC(C)(C)O2 [Compound 3]				pIC50 [2]: 4.60; pIC50 [3]: 4.61
CCCCCCCCNCc1ccc(OC)cc1 [Compound 5]				pIC50 [4]: 5.89; pIC50 [5]: 5.24
O=C1C=C(c2ccc(C(F)(F)F)cc2)S(=O)(=O)c2ccc(F)cc21 [Compound 6]				pEC50 (L. (V) panamensis): > 5.00
NC(=S)N/N=C1\CC(c2ccccc2)Sc2ccccc21 (stereo not shown) [Compound 7]				pEC50 (L. (V) panamensis; acyl hydrazone derivatives): 5.29; cytotoxicity (in words) [6]: low cytotoxicity
O=C(N/N=C1\CCSc2ccccc21)c1ccccc1 [Compound 8]				effect on parasite survival and infectivity (in words) (L. braziliensis): very effective; effect on parasite survival and infectivity (in words) (L. pifanoi): very effective
CC1(C)CC(=O)c2cc(COC(=O)C/C=C/c3ccccc3)ccc2S1 [Compound 10a, (2,2-Dimethyl-4-oxothiochroman-6-yl)methyl (E)-4-phenylbut-3-enoate]	4.46	>3.97	> 136 µM	
CC1(C)CC(=O)c2cc(COC(=O)/C=C/C=C/c3ccc4c(c3)OCO4)ccc2S1 [Compound 10b, (2,2-Dimethyl-4-oxothiochroman-6-yl)methyl (2E,4E)-5-(benzo[d][1,3]dioxol-5-yl)penta-2,4-dienoate]	4.04	0.25	22.5 µM	
CC1(C)CC(=O)c2cc(CNC(=O)C/C=C/c3ccccc3)ccc2S1 [Compound 11a, (E)-N-((2,2-Dimethyl-4-oxothiochroman-6-yl)methyl)-4-phenylbut-3-enamide]	4.98	3.01	31.6 µM	activity against L. infantum (in words) [1]: notable anti-leishmanial activity
CC1(C)CC(=O)c2cc(CNC(=O)/C=C/C=C/c3ccc4c(c3)OCO4)ccc2S1 [Compound 11c, (2E,4E)-5-(Benzo[d][1,3]dioxol-5-yl)-N-((2,2-dimethyl-4-oxothiochroman-6-yl)methyl)penta-2,4-dienamide]	< 3.93		> 119 µM	activity against L. infantum (in words) [1]: devoid of activity
CCCCCCCC(=O)NCc1ccc2c(c1)C(=O)CC(C)(C)S2 [Compound 11d, N-((2,2-Dimethyl-4-oxothiochroman-6-yl)methyl)octanamide]	4.29	2.68	137 µM	
CC1(C)CC(=O)c2cc(CNC(=O)CCCCCCCCBr)ccc2S1 [Compound 11e, 9-Bromo-N-((2,2-dimethyl-4-oxothiochroman-6-yl)methyl)nonanamide]	5.14	8.06	58 µM	activity against L. infantum (in words) [1]: notable anti-leishmanial activity
CCCCNCc1ccc2c(c1)C(=O)CC(C)(C)S2 [Compound 12a, 6-((Butylamino)methyl)-2,2-dimethylthiochroman-4-one]	4.58	1.25	33.2 µM	
CCCCCCNCc1ccc2c(c1)C(=O)CC(C)(C)S2 [Compound 12b, 6-((Hexylamino)methyl)-2,2-dimethylthiochroman-4-one]	4.64	1.12	25.8 µM	
CCCCCCCCNCc1ccc2c(c1)C(=O)CC(C)(C)S2 [Compound 12c, 2,2-Dimethyl-6-((octylamino)methyl)thiochroman-4-one]	4.71	1.16	22.6 µM	
CCCCCCCCCCNCc1ccc2c(c1)C(=O)CC(C)(C)S2 [Compound 12d, 2,2-Dimethyl-6-((decylamino)methyl)thiochroman-4-one]	4.91	1.86	23.1 µM	
CCCCCCCCNCc1ccc2c(c1)C(=O)CC(C)(C)[S+]2[O-] (stereo not shown) [Compound 13, 2,2-Dimethyl-6-((octylamino)methyl)thiochroman-4-one 1-oxide]	4.48	1.22	40.9 µM	
CCCCCCCCNCc1ccc2c(c1)C(=O)CC(C)(C)S2(=O)=O [Compound 14, 2,2-Dimethyl-6-((octylamino)methyl)thiochroman-4-one 1,1-dioxide]	4.47	1.27	42.8 µM	
COc1cccc2c1C(=O)c1c(O)c3c(c(O)c1C2=O)C[C@@](O)(C(=O)CO)C[C@@H]3O[C@H]1C[C@H](N)[C@H](O)[C@H](C)O1 [Doxorubicin, reference compound]			0.047 µM	
(2,2-Dimethyl-4-oxothiochroman-6-yl)methyl-6-phenylhex-5-enoate [Compound 11b]				pIC50 [1]: 4.70; cytotoxicity to macrophages (in words) (J774A.1 cells; J774A.1, compared with activity against axenic amastigotes): comparably cytotoxic to macrophages; CC50 (J774A.1 cells; MTT, 72 h incubation, mean (standard deviation)): 14 µM
